According to patent publication US10464967B2, “Non-hormonal steroid modulators of NF-κβ for treatment of disease” (Reveragen Biopharma, Inc., priority 2011, dated 2019):

What was measured:
mice = experiment: OVA-induced mouse model of acute allergic asthma; type: in vivo; details: 20 mg/kg oral on days 6-11
Experimental: The model used in the current studies has been previously described (Gwinn et al. 2006; Balsley et al. 2010). Briefly, mice were primed via intraperitoneal (i.p) injection with 50 μg of OVA in PBS with 100 μl of alum (200 μl total volume per mouse) on day 0. OVA-primed mice were challenged under light anesthesia (isoflurane) by intranasal delivery of 100 μg of OVA in PBS on days 7-10. Mice were sacrificed via CO2 exposure on day 12 for analysis.
For in vivo intervention studies, mice (n=5) received an oral dose of 20 mg/kg of the compound of Example 9 suspended in cherry syrup (30 μl total volume) on days 6-11. Additional groups of mice (n=5) received 5 mg/kg of prednisone in cherry syrup as a positive control, or cherry syrup alone as a negative control. Following sacrifice on day 12, leukocytes were collected from the airways via bronchoalveolar lavage (BAL). For this procedure, a cannula was inserted into the trachea and two 1 ml washes of cold PBS were infused in and out of the airways. […]
BAL and lung tissue cells were treated with ammonium chloride lysis buffer to remove red blood cells. The remaining leukocytes were then counted and stained for FACS analysis with a combination of PE-Cy5-anti-mouse CD4 and FITC-anti-mouse CD62L to identify effector/memory CD4+ cells (CD4+/CD62L−). […]

C57BL/6 mice = experiment: Mouse carrageenan-induced paw edema model; type: in vivo; details: 10, 20, 40 mg/kg in cherry syrup; 5 hours after carrageenan
Experimental: Female C57BL/6 mice (n=5 per group) were administered prednisone (5 mg/kg) and the compound of Example 9 (10, 20, 40 mg/kg) in cherry syrup. 24 hours later, drugs and vehicle control (syrup) were administered again. 2 hours later, mice were anesthetized, paw thickness was measured with a caliper to obtain a baseline value, and 1% carrageenan was injected subcutaneously in the subplantar region of the right hind paw. Mice were sacrificed 5 hours later and paw edema was measured via caliper. Change in thickness was calculated by subtracting baseline value from post-carrageenan injection value. Statistical analysis was performed using a Student's T-test.

DBA/1 mice = experiment: Collagen antibody induced arthritis (CAIA) model; type: in vivo, mouse; details: for Mean clinical severity score / Reduction as compared with vehicle-treated mice: prednisone 5 mg/kg, Example 9 20 mg/kg oral
Experimental: On day 1, DBA/1 mice (Jackson Labs, Bar Harbor, Me.) received an intraperitoneal (i.p.) injection of 2 mg of monoclonal antibody cocktail specific for collagen (CII) (MD Biosciences, St. Paul, Minn.). Two days later (day 3), mice received an i.p. injection of 100 μg of lipopolysaccharide (LPS). Mean clinical severity of CAIA was determined using a macroscopic clinical severity scoring system every 2-3 days by three individuals until the end of the experiment (day 14 post antibody cocktail injection). The scoring criteria was performed as follows: 0: No signs of disease; 1: Mild redness and/or swelling of one digit; 2: Redness and/or swelling of 2 digits; 3: Redness and/or swelling of more than 2 digits; 4: Redness and swelling of entire paw.
For intervention studies, mice (n=10) received an oral dose of 20 mg/kg of the compound of Example 9 suspended in cherry syrup (30 μl total volume) on day 0 through day 14. Additional groups of mice (n=10) received 5 mg/kg of prednisone in cherry syrup as a positive control, or cherry syrup alone as a negative control. On day 14, animals were sacrificed via CO2 exposure. Statistical analysis was performed using a two-way ANOVA followed by a Bonferroni post-hoc test.

mdx mice = experiment: In vivo mdx mouse model of dystrophy
Experimental: Separate groups (n=12-14) of mdx mice were treated with prednisolone (5 mg/kg/day; per oral in feed), Example 1 (20 and 40 mg/kg/day; per oral in feed) and Example 2 (20 and 40 mg/kg/day; per oral in feed) for 3 months. All mice underwent 30 min biweekly treadmill exercise during the treatment duration to unmask the mild disease phenotype of mdx mouse model.
Motor coordination and strength were assessed using Rota-rod (Ugo Basile, VA, Italy) testing. Briefly, mice were trained on the rota-rod for two days before collecting data. Each acclimatization session consisted of four training sessions, 2 per day and each session lasting 120 seconds at a speed of 5 rpm). Each trial consisted of placing the mice on the rod at 10 rpm for 60 seconds (stabilizing period) followed by an acceleration from 10 rpm to 40 rpm within the first 25 seconds until the animal fell from the rod or until 180 seconds are reached. If the animals fell during the stabilizing period, they were placed back on the rod to complete the session. The total testing time was 240 seconds (60 seconds stabilization time and 180 seconds test time). Each trial was performed twice a day (2 hour interval between sessions) for 3 consecutive days. The latency to fall (seconds) was recorded and all six scores were averaged per mouse. The average data was expressed as latency to fall (in seconds) for each group mice at 3 age groups.
The distal tendon of the extensor digitorum longus (EDL) muscle was tied securely to the lever arm of a servomotor/force transducer (model 305B, Aurora Scientific, Richmond Hill, ON, Canada) and the proximal tendon to a tissue clamp. Muscles were stimulated between two platinum electrodes. […] With the muscle held at Lo using stimulation frequencies of 30, 50, 80, 100, 120 and 150 Hz, the maximum isometric tetanic force (Po) developed during a 300 ms train of stimulation pulses was recorded for the EDL muscle. The muscle length was then measured with calipers and after removal of the muscle from the bath the mass of the muscle was determined. For each muscle, the optimum fiber length (Lf) was calculated by multiplying Lo by a previously determined Lf/Lo ratio of 0.45. Total muscle fiber cross-sectional area was determined by dividing the wet mass by the product of Lf and the density of mammalian skeletal muscle (1.06 mg/mm^3). Maximum isometric specific force (sPo) was determined by dividing Po by the total muscle fiber cross-sectional area.

[1] = 20 and 40 mg/kg/day for 3 months, vs untreated and prednisolone treated

SMILES | Mean clinical severity score (DBA/1 mice; Day 7) | Reduction as compared with vehicle-treated mice (DBA/1 mice; Day 7) [%] | Mean clinical severity score (DBA/1 mice; Day 9) | Reduction as compared with vehicle-treated mice (DBA/1 mice; Day 9) [%] | Mean clinical severity score (DBA/1 mice; Day 11) | Reduction as compared with vehicle-treated mice (DBA/1 mice; Day 11) [%] | Mean clinical severity score (DBA/1 mice; Day 14) | Reduction as compared with vehicle-treated mice (DBA/1 mice; Day 14) [%] | Histology (H&E) of gastrocnemius muscle (mdx mice; [1]) | further results
C[C@@H]1CC2C3CCC4=CC(=O)C=C[C@]4(C)C3=CC[C@]2(C)[C@@]1(O)C(=O)CO (stereo partly drawn) [Example 9, (10S,13S,16R,17R)-17-hydroxy-17-(2-hydroxyacetyl)-10,13,16-trimethyl-6,7,8,10,12,13,14,15,16,17-decahydro-3H-cyclopenta[a]phenanthren-3-one] | 4.5 ± 0.95 | 43.8 | 5.0 ± 0.77 | 35.5 | 5.6 ± 0.82 | 41.3 | 3.1 ± 0.69 | 50 |  | Parameters of acute allergic lung inflammation (leukocyte infiltration, mucus production) (mice): effective at improving parameters of acute allergic lung inflammation; Carrageenan-induced paw edema (C57BL/6 mice): effective at reducing mouse paw edema induced by carrageenan; Collagen antibody induced arthritis (DBA/1 mice; 20 mg/kg oral, day 0 through day 14): effective at reducing collagen antibody induced arthritis
C[C@]12C=CC(=O)C=C1CC[C@@H]1[C@@H]2C(=O)C[C@@]2(C)[C@H]1CC[C@]2(O)C(=O)CO [Prednisone, reference compound] | 2.4 ± 0.68 | 69.8 | 1.5 ± 0.27 | 69.8 | 2.9 ± 0.39 | 69.1 | 0.7 ± 0.3 | 88.7 |  | 
C[C@]12C=CC(=O)C=C1CCC1C2=CC[C@@]2(C)C1CC[C@]2(O)C(=O)CO (stereo partly drawn) [Example 2, (10S,13S,17R)-17-hydroxy-17-(2-hydroxyacetyl)-10,13-dimethyl-6,7,8,10,12,13,14,15,16,17-decahydro-3H-cyclopenta[a]phenanthren-3-one] |  |  |  |  |  |  |  |  | significant decrease in inflammation, degeneration, and increase in regenerating muscle fibers | 
C[C@]12C=CC(=O)C=C1CC[C@@H]1[C@@H]2[C@@H](O)C[C@@]2(C)[C@H]1CC[C@]2(O)C(=O)CO [Prednisolone] |  |  |  |  |  |  |  |  |  | Body weight vs untreated mice (mdx mice; 5 mg/kg/day per oral in feed, 33.8 weeks age): significantly lower body weight; Histology (H&E) of gastrocnemius muscle (mdx mice; continuous prednisolone 5 mg/kg/day): appeared to increase degeneration and decrease in regeneration of dystrophic skeletal muscle; EDL specific force vs untreated (mdx mice; prednisolone 5 mg/kg/day): no statistically significant (P<0.05) difference in specific force
C[C@]12CCC(=O)C=C1CCC1C2=CC[C@@]2(C)C1CC[C@]2(O)C(=O)CO (stereo partly drawn) [Example 1, (10S,13S,17R)-17-hydroxy-17-(2-hydroxyacetyl)-10,13-dimethyl-6,7,8,10,12,13,14,15,16,17-decahydro-1H-cyclopenta[a]phenanthren-3(2H)-one] |  |  |  |  |  |  |  |  | significant decrease in inflammation, degeneration, and increase in regenerating muscle fibers | 
